Source: US6423854B1, “Aminophenol derivatives and their use in cosmetics” (L'Oreal, priority 1997, dated 2002)

Tested on: co-culture of keratinocytes and melanocytes
Experiment: Inhibition of melanogenesis (depigmenting activity) in a co-culture of keratinocytes and melanocytes
Format: cell-based
Settings: for Class (maximum depigmenting activity): inhibition of melanogenesis relative to control; for IC50: co-culture of keratinocytes and melanocytes, read-out: IC50 (concentration for which a 50% inhibition of melanogenesis is observed)
Description: This test corresponds to the one described in patent FR 2,734,825 filed by the Applicant, as well as in the article by R. Schmidt, P. Krien and M. Régnier, Anal. Biochem., 235(2), 113-18, (1996). This test is thus carried out on a co-culture of keratinocytes and melanocytes.
For each test compound, the IC50 value, which corresponds to the micromolar (μM) concentration for which a 50% inhibition of melanogenesis is observed, is determined.
Moreover, each of these compounds is classed as regards their maximum depigmenting activity:
Class 1: 10 to 30% inhibition of melanogenesis relative to the control (same experiment without test compound);
Class 2: 30 to 60% inhibition of melanogenesis relative to the control (same experiment without test compound);
Class 3: 60 to 100% inhibition of melanogenesis relative to the control (same experiment without test compound).

Row | IC50 | SMILES | Class (maximum depigmenting activity) (1 μM) | Class (maximum depigmenting activity) (200 μM) | Class (maximum depigmenting activity) (500 μM)
1 | 1 µM | CCOC(=O)Nc1ccc(O)cc1 [Compound of Example 1, N-Ethyloxycarbonyl-4-aminophenol] | 3 to 1 μM (Class 3: 60 to 100% inhibition of melanogenesis relative to the control) | – | –
2 | 50 µM | CCOC(=O)Nc1ccc(OC(=O)OCC)cc1 [Compound of Example 2, N-Ethyloxycarbonyl-O-ethyloxycarbonyl-4-aminophenol] | – | 3 to 200 | –
3 | 500 µM | O=c1cc(CO)occ1O [Kojic acid, reference compound] | – | – | 2 to 500

Row | SMILES | IC50 | Class (maximum depigmenting activity) (1 μM) | Class (maximum depigmenting activity) (200 μM) | Class (maximum depigmenting activity) (500 μM)
4 | CC(C)CCC[C@@H](C)[C@H]1CC[C@H]2[C@@H]3CC=C4C[C@@H](OC(=O)Nc5ccc(O)cc5)CC[C@]4(C)[C@H]3CC[C@]12C [Compound of Example 3, N-Cholesteryloxycarbonyl-4-aminophenol] | 10 µM | – | 3 to 200 | –
